Source: US20230392123A1, “[…]-ASSEMBLED PEPTIDE HYDROGELS […]” (KATHOLIEKE UNIVERSITEIT LEUVEN, priority 2020, published 2023)
“Also recorded” adds a separate entry of the source.

Test system: HepG2 cells
Assay: Live/dead staining of HepG2 hydrogel spheroids in 384 well plate, high-content imaging
Type: cell-based
Details: 0.1% Triton X for 15 minutes, after 19 days of culture, toxic control
Experimental: High-throughput assays: HepG2 cells were cultured in 2D in DMEM (Invitrogen Cat #31885)+10% fetal bovine serum (FBS). Cells were detached at passage 12 by 0.05% trypsin and mixed (1×10^7 cells/ml) with Puramatrix™+10% Bovine Collagen I (Gibco, Ref: A10644-01, Auckland, NZ) and 1 ul of the mix was pipetted in each well of a 384 well plate (Greiner microplate, Ref: 787979) to form the HepG2 hydrogel spheroids (one hydrogel spheroid per well). Hydrogel spheroids were maintained in HepG2 medium and the medium change was handled automatically by a robotic platform (NextGenQBio) for 19 days. Live/dead staining (Invitrogen, Ref:3224) was performed on the cell in the spheroids according the manufacturer's instruction. Prior to live/dead staining, a group of the hydrogel spheroids were treated with 0.1% Triton X for 15 minutes as control. Nuclei was stained by Hoechst (1:1000 dilution) for 15 minutes. The plate was imaged by a high-content analysis system (Operetta, PerkinElmer®). […] This experiment highlights the potential of hydrogel spheroids to be used in a high-throughput set up specifically important for drug/compound screening and toxicity studies.

Triton X
live (green)/dead (red) staining of HepG2 cells in hydrogel spheroids: minimal or no green colour; also recorded: cell death
